Assay results taken from patent US20240336594A1, “SIX-MEMBERED ARYL OR HETEROARYL AMIDES, AND COMPOSITION AND USE THEREOF” (BETTA PHARMACEUTICALS CO., LTD, priority 2021, published 2024).

Target: T1, MALT1 (Homo sapiens, UniProt Q9UDY8)
T1 sequence (Q9UDY8 1-824): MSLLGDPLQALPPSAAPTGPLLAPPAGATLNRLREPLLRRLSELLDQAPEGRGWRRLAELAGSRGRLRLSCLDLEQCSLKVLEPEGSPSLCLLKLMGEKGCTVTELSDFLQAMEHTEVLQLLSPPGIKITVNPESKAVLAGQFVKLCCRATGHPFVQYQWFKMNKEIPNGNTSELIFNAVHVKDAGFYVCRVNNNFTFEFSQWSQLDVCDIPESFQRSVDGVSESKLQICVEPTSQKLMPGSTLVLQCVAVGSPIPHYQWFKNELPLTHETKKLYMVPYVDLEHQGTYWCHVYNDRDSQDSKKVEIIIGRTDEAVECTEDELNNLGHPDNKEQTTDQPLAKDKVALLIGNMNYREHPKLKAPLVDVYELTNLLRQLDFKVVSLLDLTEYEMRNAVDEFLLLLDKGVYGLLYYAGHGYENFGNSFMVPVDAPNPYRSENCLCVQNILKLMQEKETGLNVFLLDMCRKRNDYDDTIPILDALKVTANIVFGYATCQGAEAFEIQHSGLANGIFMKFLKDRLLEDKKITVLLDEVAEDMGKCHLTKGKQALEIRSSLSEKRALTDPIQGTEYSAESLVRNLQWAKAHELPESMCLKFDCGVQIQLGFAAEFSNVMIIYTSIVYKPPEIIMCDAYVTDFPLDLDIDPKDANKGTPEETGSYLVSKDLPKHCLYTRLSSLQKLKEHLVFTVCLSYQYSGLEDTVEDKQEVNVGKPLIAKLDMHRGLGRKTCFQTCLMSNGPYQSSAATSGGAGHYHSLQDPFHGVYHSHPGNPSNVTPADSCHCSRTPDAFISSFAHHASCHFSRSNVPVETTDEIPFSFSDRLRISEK
Experiment: MALT1 protease inhibition assay (AMC-labeled peptide, fluorescence 360/460)
Format: biochemical
Conditions: substrate Ac-LRSR-AMC, 15 min preincubation, 90 min at 25° C.
Procedure: Test compounds of the present invention (in 100% DMSO) were spotted into a 384-well dilution plate and serially diluted to the required concentrations with DMSO. Then, 0.2 μL of the test compounds were transferred into a new 384-well reaction plate by Echo following centrifugation. The MALT enzyme and its substrate, AMC-labeled peptide, were prepared in 1× protease buffer to yield 2× enzyme solution and 2× peptide solution. Subsequently, 10 μL of 2× enzyme solution was added into the 384-well reaction plate, incubating with the test compounds for 15 minutes at 25° C. After that, 10 μL of 2× peptide solution was added into the plate, continuing to incubate for 90 minutes at 25° C. The plate was then placed on an Envision multifunctional microplate reader to collect raw data, which would be converted into inhibition rate:
Inhibition rate %=(max−sample)/(max−min)*100%. • “max” values were measured using the reaction with enzyme but no compound treated, while “min” values were generated from control wells containing assay buffer without enzyme.
Curve fitting was done with Graphpad Prism software to determine the IC50 values. The specific experimental operations are as follows:
58.82 g Na Citrate·2H2O powder was added into 140 mL ddH2O and mixed in a 37° C. water bath. Once there were no visible particles, the remaining solutions were added successively with continuous stirring for 10 minutes. The final volume was adjusted to 200 mL. The buffer was stored at room temperature. DTT was added before use.
• 1) All test compounds were diluted from 10 mM stock solution into 1 mM in a 384 well dilution plate (labcyte, PP-0200); • 2) Ten various concentrations of the diluted compound solution above were obtained by serial dilution at an equal ratio of 1:3; • 3) 0.2 μL DMSO was transferred to two empty wells of the 384 reaction plate as blank controls without compound and enzyme respectively; • 4) 0.2 μL of the test compound at different concentrations was also transferred into the 384 reaction plate by Echo, with two duplicate wells for each concentration, then the plate was centrifuged at 1000 rpm for 1 min.
• 1) The MALT1 protease and AMC-labeled peptide was prepared in 1× protease buffer to obtain 2× enzyme solution and 2× peptide solution. 10 μL of 2× enzyme solution was added into the 384-well reaction plate. The plate was centrifuged at 1000 rpm for 1 min and incubated for 15 min at 25° C. • 2) 10 μL of 2× peptide solution was then transferred to the 384 reaction plate, and the plate was centrifuged at 1000 rpm for 1 min and incubate for 90 min at 25° C.

CC1(CNC(=O)c2ncc(NC(=O)c3cc(F)c(-c4ccc(F)cc4N)cc3Cl)cc2Cl)CC1 [Example A436, 5-(2′-amino-5-chloro-2,4′-difluoro-[1,1′-biphenyl]-4-carboxamido)-3-chloro-N-((1-methylcyclopropyl)methyl) picolinamide]
IC50: 100 to 500 nM

Nc1cc(F)ccc1-c1cc(Cl)c(C(=O)Nc2cnc(C(=O)NCC3CCS(=O)(=O)CC3)c(Cl)c2)cc1F [Example A437, 5-(2′-amino-5-chloro-2,4′-difluoro-[1,1′-biphenyl]-4-carboxamido)-3-chloro-N-((1,1-dioxidotetrahydro-2H-thiopyran-4-yl)methyl)picolinamide]
IC50: 10 to 100 nM

CCCCNC(=O)c1ncc(NC(=O)c2cc(F)c(-c3ccc(F)cc3N)cc2Cl)cc1Cl [Example A438, 5-(2′-amino-5-chloro-2,4′-difluoro-[1,1′-biphenyl]-4-carboxamido)-N-butyl-3-chloropicolinamide]
IC50: 10 to 100 nM

C#CCNC(=O)c1ncc(NC(=O)c2cc(F)c(-c3ccc(F)cc3N)cc2Cl)cc1Cl [Example A439, 5-(2′-amino-5-chloro-2,4′-difluoro-[1,1′-biphenyl]-4-carboxamido)-3-chloro-N-(prop-2-yn-1-yl) picolinamide]
IC50: > 500 nM

O=C(Nc1cnc(-n2nccn2)c(C(F)(F)F)c1)c1cc(F)c(-c2c(Br)cncc2[N+](=O)[O-])cc1Cl [Example A440, N-(6-(2H-1,2,3-triazol-2-yl)-5-(trifluoromethyl)pyridin-3-yl)-4-(3-bromo-5-nitropyridin-4-yl)-2-chloro-5-fluorobenzamide]
IC50: 10 to 100 nM

N#CCNC(=O)c1ncc(NC(=O)c2cc(F)c(-c3ccc(F)cc3N)cc2Cl)cc1Cl [Example A441, 5-(2′-amino-5-chloro-2,4′-difluoro-[1,1′-biphenyl]-4-carboxamido)-3-chloro-N-(cyanomethyl)picolinamide]
IC50: 10 to 100 nM

Cc1cc(F)cc(N)c1-c1cc(Cl)c(C(=O)Nc2cnc(C(=O)NCC#N)c(Cl)c2)cc1F [Example A442, 5-(2′-amino-5-chloro-2,4′-difluoro-6′-methyl-[1,1′-biphenyl]-4-carboxamido)-3-chloro-N-(cyanomethyl)picolinamide]
IC50: 10 to 100 nM

Nc1cc(F)ccc1-c1cc(Cl)c(C(=O)Nc2cnc(C(=O)NCC(F)(F)F)c(Cl)c2)cc1F [Example A443, 5-(2′-amino-5-chloro-2,4′-difluoro-[1,1′-biphenyl]-4-carboxamido)-3-chloro-N-(2,2,2-trifluoroethyl)picolinamide]
IC50: ≤ 10 nM

CCNC(=O)c1ncc(NC(=O)c2cc(F)c(-c3ccc(F)cc3N)cc2Cl)cc1Cl [Example A444, 5-(2′-amino-5-chloro-2,4′-difluoro-[1,1′-biphenyl]-4-carboxamido)-3-chloro-N-ethylpicolinamide]
IC50: ≤ 10 nM

O=C(Nc1cnc(-n2nccn2)c(Cl)c1)c1cc(F)c(-c2ccncc2C2CC2)cc1Cl [Example A445, 2-chloro-N-(5-chloro-6-(2H-1,2,3-triazol-2-yl)pyridin-3-yl)-4-(3-cyclopropylpyridin-4-yl)-5-fluorobenzamide]
IC50: 10 to 100 nM

CC(C)(C)CNC(=O)c1ncc(NC(=O)c2cc(F)c(-c3ccc(F)cc3N)cc2Cl)cc1Cl [Example A446, 5-(2′-amino-5-chloro-2,4′-difluoro-[1,1′-biphenyl]-4-carboxamido)-3-chloro-N-neopentylpicolinamide]
IC50: ≤ 10 nM

Nc1cc(F)ccc1-c1cc(Cl)c(C(=O)Nc2cnc(C(=O)NCc3ccoc3)c(Cl)c2)cc1F [Example A447, 5-(2′-amino-5-chloro-2,4′-difluoro-[1,1′-biphenyl]-4-carboxamido)-3-chloro-N-(furan-3-ylmethyl)picolinamide]
IC50: 10 to 100 nM

COCCNC(=O)c1ncc(NC(=O)c2cc(F)c(-c3ccc(F)cc3N)cc2Cl)cc1Cl [Example A449, 5-(2′-amino-5-chloro-2,4′-difluoro-[1,1′-biphenyl]-4-carboxamido)-3-chloro-N-(2-methoxyethyl)picolinamide]
IC50: 10 to 100 nM

CC(C#N)NC(=O)c1ncc(NC(=O)c2cc(F)c(-c3ccc(F)cc3N)cc2Cl)cc1Cl (stereo not drawn) [Example A450, 5-(2′-amino-5-chloro-2,4′-difluoro-[1,1′-biphenyl]-4-carboxamido)-3-chloro-N-(1-cyanoethyl)picolinamide]
IC50: 10 to 100 nM

Nc1cc(F)ccc1-c1cc(Cl)c(C(=O)Nc2cnc(C(=O)NCC3CC(F)(F)C3)c(Cl)c2)cc1F [Example A451, 5-(2′-amino-5-chloro-2,4′-difluoro-[1,1′-biphenyl]-4-carboxamido)-3-chloro-N-((3,3-difluorocyclobutyl)methyl) picolinamide]
IC50: 10 to 100 nM

Nc1cc(F)ccc1-c1cc(Cl)c(C(=O)Nc2cnc(C(=O)NCc3nnco3)c(Cl)c2)cc1F [Example A452, N-((1,3,4-oxadiazol-2-yl)methyl)-5-(2′-amino-5-chloro-2,4′-difluoro-[1,1′-biphenyl]-4-carboxamido)-3-chloropicolinamide]
IC50: 100 to 500 nM

CN(C)CCNC(=O)c1ncc(NC(=O)c2cc(F)c(-c3ccc(F)cc3N)cc2Cl)cc1Cl [Example A453, 5-(2′-amino-5-chloro-2,4′-difluoro-[1,1′-biphenyl]-4-carboxamido)-3-chloro-N-(2-(dimethylamino)ethyl) picolinamide]
IC50: 100 to 500 nM

Nc1cc(F)ccc1-c1cc(Cl)c(C(=O)Nc2cnc(C(=O)NCC3CCC3)c(Cl)c2)cc1F [Example A454, 5-(2′-amino-5-chloro-2,4′-difluoro-[1,1′-biphenyl]-4-carboxamido)-3-chloro-N-(cyclobutylmethyl) picolinamide]
IC50: 100 to 500 nM

Cn1ccc(CNC(=O)c2ncc(NC(=O)c3cc(F)c(-c4ccc(F)cc4N)cc3Cl)cc2Cl)n1 [Example A455, 5-(2′-amino-5-chloro-2,4′-difluoro-[1,1′-biphenyl]-4-carboxamido)-3-chloro-N-((1-methyl-1H-pyrazol-3-yl)methyl)picolinamide]
IC50: 10 to 100 nM

N#CCNC(=O)c1ncc(NC(=O)c2cc(F)c(-c3ccc(F)nc3N)cc2Cl)cc1Cl [Example A456, 5-(4-(2-amino-6-fluoropyridin-3-yl)-2-chloro-5-fluorobenzamido)-3-chloro-N-(cyanomethyl)picolinamide]
IC50: 10 to 100 nM

Nc1cc(F)ccc1-c1cc(Cl)c(C(=O)Nc2cnc(C(=O)NCC(F)(F)C(F)(F)C(F)(F)F)c(Cl)c2)cc1F [Example A458, 5-(2′-amino-5-chloro-2,4′-difluoro-[1,1′-biphenyl]-4-carboxamido)-3-chloro-N-(2,2,3,3,4,4,4-heptafluorobutyl) picolinamide]
IC50: > 500 nM

Nc1cc(F)ccc1-c1cc(Cl)c(C(=O)Nc2cnc(C(=O)NCCOC(F)(F)F)c(Cl)c2)cc1F [Example A459, 5-(2′-amino-5-chloro-2,4′-difluoro-[1,1′-biphenyl]-4-carboxamido)-3-chloro-N-(2-(trifluoromethoxy)ethyl)picolinamide]
IC50: 100 to 500 nM

Nc1cc(F)ccc1-c1cc(Cl)c(C(=O)Nc2cnc(-n3nccn3)c(Cl)c2)cc1N [Example A460, 2,2′-diamino-5-chloro-N-(5-chloro-6-(2H-1,2,3-triazol-2-yl)pyridin-3-yl)-4′-fluoro-[1,1′-biphenyl]-4-carboxamide]
IC50: 10 to 100 nM

Nc1cc(F)ccc1-c1cc(Cl)c(C(=O)Nc2cnc(C(=O)NCCF)c(Cl)c2)cc1F [Example A461, 5-(2′-amino-5-chloro-2,4′-difluoro-[1,1′-biphenyl]-4-carboxamido)-3-chloro-N-(2-fluoroethyl)picolinamide]
IC50: 10 to 100 nM
